This assay has as its target T1, human recombinant HDAC6 (Homo sapiens, UniProt Q9UBN7).
T1 construct: purchased Calbiochem 382180
T1 sequence (Q9UBN7 1-1215): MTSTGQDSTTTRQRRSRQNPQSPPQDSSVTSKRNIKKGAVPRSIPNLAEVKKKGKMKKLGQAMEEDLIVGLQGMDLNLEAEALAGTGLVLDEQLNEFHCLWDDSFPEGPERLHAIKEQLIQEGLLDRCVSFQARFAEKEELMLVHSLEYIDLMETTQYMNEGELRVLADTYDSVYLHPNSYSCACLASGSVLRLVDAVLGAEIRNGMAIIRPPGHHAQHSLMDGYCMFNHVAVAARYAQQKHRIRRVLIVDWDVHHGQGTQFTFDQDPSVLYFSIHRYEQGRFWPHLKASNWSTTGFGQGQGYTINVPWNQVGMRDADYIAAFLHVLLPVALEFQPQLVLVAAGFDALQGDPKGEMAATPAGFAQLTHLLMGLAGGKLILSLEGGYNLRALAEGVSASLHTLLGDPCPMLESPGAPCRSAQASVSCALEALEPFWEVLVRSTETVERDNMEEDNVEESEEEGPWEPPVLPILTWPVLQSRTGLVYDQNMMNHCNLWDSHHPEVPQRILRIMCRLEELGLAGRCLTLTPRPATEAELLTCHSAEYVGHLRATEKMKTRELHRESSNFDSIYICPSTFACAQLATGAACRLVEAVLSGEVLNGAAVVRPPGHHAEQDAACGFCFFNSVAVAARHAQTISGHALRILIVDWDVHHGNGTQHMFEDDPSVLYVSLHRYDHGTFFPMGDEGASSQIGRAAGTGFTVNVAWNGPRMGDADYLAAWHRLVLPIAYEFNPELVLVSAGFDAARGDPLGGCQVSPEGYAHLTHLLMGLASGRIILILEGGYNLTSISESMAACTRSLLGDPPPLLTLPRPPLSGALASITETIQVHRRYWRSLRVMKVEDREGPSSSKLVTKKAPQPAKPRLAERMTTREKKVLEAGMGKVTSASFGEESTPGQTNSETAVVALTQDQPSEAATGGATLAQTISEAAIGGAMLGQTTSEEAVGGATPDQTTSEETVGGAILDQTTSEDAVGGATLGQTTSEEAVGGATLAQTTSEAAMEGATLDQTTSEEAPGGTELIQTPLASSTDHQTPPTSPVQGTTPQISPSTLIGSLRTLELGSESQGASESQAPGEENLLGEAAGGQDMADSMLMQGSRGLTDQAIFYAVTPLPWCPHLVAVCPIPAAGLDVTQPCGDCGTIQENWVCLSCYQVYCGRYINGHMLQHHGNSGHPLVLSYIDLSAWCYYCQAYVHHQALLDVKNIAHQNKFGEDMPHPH
The assay is described as follows: HDAC enzyme activity inhibition assay (HDAC6, fluorimetric kit). The class given is biochemical. The settings on record: for HDAC6 selectivity (fold): HDAC6 versus HDAC1; for IC50: same protocol as the HDAC1 test. Put shortly:
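Fluorimetric kit assay: human recombinant HDAC1 or HDAC6 (0.3 μg) reacted with 10 μM Fluor de Lys-SIRT1 substrate and 5-fold serially diluted compound for 60 minutes at 30° C, followed by 30 minutes of developer. Fluorescence was read at Ex 360/Em 460, and IC50 values were calculated from it.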

Usually IC50 stands for the concentration needed to halve the response being measured. Turning to `CC(=O)N(Cc1ccc(-c2nnc(C(F)F)o2)cc1F)c1cccc(F)c1` [Compound 11339, N-(4-(5-(difluoromethyl)-1,3,4-oxadiazol-2-yl)-2-fluorobenzyl)-N-(3-fluorophenyl)acetamide], the “HDAC6 selectivity (fold)” value was 2041 fold and the IC50 worked out at 49 nM.
`CC(=O)N(Cc1ccc(-c2nnc(C(F)(F)F)o2)cc1F)c1cccc(F)c1` [Compound 11340, N-(2-fluoro-4-(5-(trifluoromethyl)-1,3,4-oxadiazol-2-yl)benzyl)-N-(3-fluorophenyl)acetamide]: the “HDAC6 selectivity (fold)” value was 1087 fold and the IC50 was determined as 92 nM.
For `O=C(c1ccncc1)N(Cc1ccc(-c2nnc(C(F)F)o2)cn1)c1ccccc1` [Compound 11341, N-((5-(5-(difluoromethyl)-1,3,4-oxadiazol-2-yl)pyridin-2-yl)methyl)-N-phenylisonicotinamide], the “HDAC6 selectivity (fold)” value is given as 2941 fold and the IC50 came out at 34 nM.
Regarding `CCC(=O)N(Cc1ccc(-c2nnc(C(F)F)o2)cc1F)c1cccc(F)c1` [Compound 11356, N-(4-(5-(difluoromethyl)-1,3,4-oxadiazol-2-yl)-2-fluorobenzyl)-N-(3-fluorophenyl)propionamide], the “HDAC6 selectivity (fold)” value is 1961 fold and the IC50 is 51 nM.
Take `CCCC(=O)N(Cc1ccc(-c2nnc(C(F)F)o2)cc1F)c1cccc(F)c1` [Compound 11357, N-(4-(5-(difluoromethyl)-1,3,4-oxadiazol-2-yl)-2-fluorobenzyl)-N-(3-fluorophenyl)butyramide]: the “HDAC6 selectivity (fold)” value was 1149 fold and the IC50 was found to be 87 nM.
In the same order, the values of `CC(C)CC(=O)N(Cc1ccc(-c2nnc(C(F)F)o2)cc1F)c1cccc(F)c1` [Compound 11358, N-(4-(5-(difluoromethyl)-1,3,4-oxadiazol-2-yl)-2-fluorobenzyl)-N-(3-fluorophenyl)-3-methylbutanamide] are 847 fold and 118 nM.
In the same order, the values of `O=C(c1ccncc1)N(Cc1ccc(-c2nnc(C(F)(F)F)o2)cn1)c1cccc(F)c1` [Compound 11359, N-(3-fluorophenyl)-N-((5-(5-(trifluoromethyl)-1,3,4-oxadiazol-2-yl)pyridin-2-yl)methyl)isonicotinamide] are 2941 fold and 34 nM.
For `O=C(c1ccncc1)N(Cc1ccc(-c2nnc(C(F)F)o2)cn1)c1cccc(F)c1` [Compound 11360, N-((5-(5-(difluoromethyl)-1,3,4-oxadiazol-2-yl)pyridin-2-yl)methyl)-N-(3-fluorophenyl)isonicotinamide], the “HDAC6 selectivity (fold)” value came to 3125 fold and the IC50 amounted to 32 nM.
For `O=C(c1cccnc1)N(Cc1ccc(-c2nnc(C(F)F)o2)cn1)c1cccc(F)c1` [Compound 11376, N-((5-(5-(difluoromethyl)-1,3,4-oxadiazol-2-yl)pyridin-2-yl)methyl)-N-(3-fluorophenyl)nicotinamide], the “HDAC6 selectivity (fold)” value is on record as 4167 fold and the concentration for half-maximal inhibition (IC50) is 24 nM.
Consider `CN1CCC(C(=O)N(Cc2ccc(-c3nnc(C(F)F)o3)cn2)c2ccccc2)CC1` [Compound 11414, N-((5-(5-(difluoromethyl)-1,3,4-oxadiazol-2-yl)pyridin-2-yl)methyl)-1-methyl-N-phenylpipetidine-4-carboxamide], for which the “HDAC6 selectivity (fold)” value is listed as 2500 fold and the IC50 is 40 nM.
For the compound `CN1CCC(C(=O)N(Cc2ccc(-c3nnc(C(F)F)o3)cn2)c2cccc(F)c2)CC1` [Compound 11418, N-((5-(5-(difluoromethyl)-1,3,4-oxadiazol-2-yl)pyridin-2-yl)methyl)-N-(3-fluorophenyl)-1-methylpiperidine-4-carboxamide], the “HDAC6 selectivity (fold)” value came out at 2500 fold and the half-inhibitory concentration (IC50) worked out at 40 nM.
The like results for `CCN1CCC(C(=O)N(Cc2ccc(-c3nnc(C(F)F)o3)cn2)c2cccc(F)c2)CC1` [Compound 11419, N-((5-(5-(difluoromethyl)-1,3,4-oxadiazol-2-yl)pyridin-2-yl)methyl)-1-ethyl-N-(3-fluorophenyl)piperidine-4-carboxamide] were, in that order, 3333 fold and 30 nM.
As to `O=C(CN1CCCC1)N(Cc1ccc(-c2nnc(C(F)F)o2)cc1F)c1ccc(F)c(Cl)c1` [Compound 11534, N-(3-chloro-4-fluorophenyl)-N-(4-(5-(difluoromethyl)-1,3,4-oxadiazol-2-yl)-2-fluorobenzyl)-2-(pyrolidin-1-yl)acetamide], the “HDAC6 selectivity (fold)” value is 1370 fold and the IC50 came to 73 nM.
Regarding `O=C(CN1CCOCC1)N(Cc1ccc(-c2nnc(C(F)F)o2)cc1F)c1ccc(F)c(Cl)c1` [Compound 11535, N-(3-chloro-4-fluorophenyl)-N-(4-(5-(difluoromethyl)-1,3,4-oxadiazol-2-yl)-2-fluorobenzyl)-2-morpholinoacetamide], the “HDAC6 selectivity (fold)” value stood at 1163 fold and the IC50 came to 86 nM.
With `O=C(CN1CC[C@H](O)C1)N(Cc1ccc(-c2nnc(C(F)F)o2)cc1F)c1ccc(F)c(Cl)c1` [Compound 11536, (S)-N-(3-chloro-4-fluorophenyl)-N-(4-(5-(difluoromethyl)-1,3,4-oxadiazol-2-yl)-2-fluorobenzyl)-2-(3-hydroxypyrrolidin-1-yl)acetamide], the “HDAC6 selectivity (fold)” value came to 1042 fold and the IC50 was 96 nM.
As for `O=C(CN1CCC[C@@H]1CO)N(Cc1ccc(-c2nnc(C(F)F)o2)cc1F)c1ccc(F)c(Cl)c1` [Compound 11537, (R)-N-(3-chloro-4-fluorophenyl)-N-(4-(5-(difluoromethyl)-1,3,4-oxadiazol-2-yl)-2-fluorobenzyl)-2-(2-(hydroxymethyl)pyrrolidin-1-yl)acetamide], the “HDAC6 selectivity (fold)” value is 1429 fold and the IC50 amounted to 70 nM.
With `NC(=O)[C@@H]1CCCN1CC(=O)N(Cc1ccc(-c2nnc(C(F)F)o2)cc1F)c1ccc(F)c(Cl)c1` [Compound 11538, (S)-1-(2-((3-chloro-4-fluorophenyl) (4-(5-(difluoromethyl)-1,3,4-oxadiazol-2-yl)-2-fluorobenzyl)amino)-2-oxoethyl)pyrrolidine-2-carboxamide], the “HDAC6 selectivity (fold)” value was 1587 fold and the IC50 was determined as 63 nM.
As to `O=C(c1ccncc1)N(Cc1ccc(-c2nnc(C(F)(F)F)o2)cn1)c1ccccc1` [Compound 11584, N-phenyl-N-((5-(5-(trifluoromethyl)-1,3,4-oxadiazol-2-yl)pyridin-2-yl)methyl)isonicotinamide], the “HDAC6 selectivity (fold)” value amounted to 1695 fold and the IC50 was determined as 59 nM.
`O=C(C1CCS(=O)(=O)CC1)N(Cc1ccc(-c2nnc(C(F)(F)F)o2)cc1F)c1ccc(F)c(Cl)c1` [Compound 11602, N-(3-chloro-4-fluorophenyl)-N-(2-fluoro-4-(5-(trifluoromethyl)-1,3,4-oxadiazol-2-yl)benzyl)tetrahydro-2H-thiopyran-4-carboxamide 1,1-dioxide]: the “HDAC6 selectivity (fold)” value turned out to be 263 fold and the IC50 was 380 nM.
For `O=C(C1CCS(=O)(=O)CC1)N(Cc1ccc(-c2nnc(C(F)F)o2)cc1F)c1ccc(F)c(Cl)c1` [Compound 11603, N-(3-chloro-4-fluorophenyl)-N-(4-(5-(difluoromethyl)-1,3,4-oxadiazol-2-yl)-2-fluorobenzyl)tetrahydro-2H-thiopyran-4-carboxamide 1,1-dioxide], the “HDAC6 selectivity (fold)” value was 685 fold and the IC50 was 146 nM.
As for `O=C(CN1CCS(=O)(=O)CC1)N(Cc1ccc(-c2nnc(C(F)F)o2)cc1F)c1ccc(F)c(Cl)c1` [Compound 11610, N-(3-chloro-4-fluorophenyl)-N-(4-(5-(difluoromethyl)-1,3,4-oxadiazol-2-yl)-2-fluorobenzyl)-2-(1,1-dioxidothiomorpholino)acetamide], the “HDAC6 selectivity (fold)” value is listed as 690 fold and the IC50 came to 145 nM.
